Laboratory results from US10959968B2, “Methods for treating c-Met-dependent cancers” (Board of Supervisors of Louisiana State University and …, priority 2016, dated 2021).
Entries after “also recorded” stand apart in the source; their conditions may differ.

Tests used:
TYRO3 (RSE) = TYRO3 (RSE) (Homo sapiens, UniProt Q06418); assay: SelectScreen Kinase Profiling; type: biochemical; settings: read-out: Mean inhibition at 10 μM of HVS (%)
[1] = system: DU145 human prostate cancer cells; assay: Cell scattering in 2D monolayer cultures; type: cell-based; settings: 16 h, listed as HVS
Procedure: FIG. 6. (A) Effect of HVS on HGF-induced migration of the highly metastatic MDA-MB-231 human breast cancer cells in wound healing assay. […] Vertical bars indicate the percentage of wound closure at 24 h after wounding, calculated relative to the wound distance at zero time±SEM of N=6 in each treatment group. SU11274 and (−)-oleocanthal were used as positive controls at 10 μM. Right panel represents photomicrographs of wound healing assay showing HVS treatment at three different concentrations (1.25, 2.5, and 5 μM) blocked the migration of MDA-MB-231 cells in response to HGF stimulation, as compared to DMSO as a vehicle control. (B) Effect of HVS on HGF-induced cell invasion of the highly aggressive MDA-MB-231 human breast cancer cells using Cultrex® BME cell invasion assay. The cells were treated with different concentrations of HVS for 24 h. Vertical bars indicate the percentage of cells invading the basement membrane at the end of treatment period±SEM of N=3 in each treatment group. (−)-Oleocanthal was used as a positive control at 20 μM dose.*P<0.05 as compared with vehicle-treated control. (C) Effect of HVS on HGF-induced scattering of the DU145 human prostate cancer cells in 2D monolayer cultures, compared to DMSO as vehicle control. Cells were treated with indicated concentrations of HVS for 30 minutes in serum-free media. […]

[2] = system: MDA-MB-231, MDA-MB-468, MCF-7 and BT-474 cells; assay: Growth of breast cancer cells without HGF, MTT assay; type: cell-based, human; settings: similar treatment doses; no HGF
Procedure: FIG. 3. (A) Effect of HVS treatment on HGF-stimulated growth of Met-dependent MDA-MB-231, MDA-MB-468, MCF-7. and BT-474 breast cancer cells after 72 h treatment period, compared to DMSO as vehicle control. Viable cell count was determined using MTT assay. Vertical bars indicate the mean cell count±SEM of N=3 in each treatment group; (−)-oleocanthal was used as a positive control at 20 μM. (B) Effect of HVS treatment on HGF-stimulated growth of Met-independent T-47D breast cancer cells after 72 h treatment period. Viable cell count was determined using MTT assay. Vertical bars indicate the mean cell count±SEM of N=3 in each treatment group. (C) Cytotoxic effects of HVS on the highly metastatic MDA-MB-231 breast cancer cells at two different concentrations (30 and 60 μM) using LDH cytotoxicity assay. Triton X-100 was used as a positive control to cause the breakdown of all the cells and induce the total possible LDH release. (D) Effects of HVS treatment on the viability of non-tumorigenic human MCF10A mammary epithelial cells after a 24 h treatment period, compared to DMSO as vehicle control. (E) As in panel (A) but without HGF. […] Viable cell count was determined using MTT assay. Vertical bars indicate the mean cell count±SEM of N=3 in each treatment group; doxorubicin was used as a positive control at 10 μM dose. *P<0.05 as compared with vehicle treated control.
[…]. […]

DU145 spheroids = assay: 3D spheroid growth, IncuCyte; type: cell-based, human; settings: 72 hours
Procedure: FIG. 9B: DU145 cells were grown in 10% FBS DMEM. Cells were collected after trypsinization and resuspended in phenol-red free DMEM with 10% FBS. Cells were labeled with Cell-Tracker Red (Life Technologies) for 5 minutes. After labeling cells were washed with PBS and transfer into 96-well Corning 7007 ULA round bottom plates at 1,000 cells/well in 100 μl phenol-red free media with 10% FBS and 5% Matrigel. […] Spheroids were grown at 37° C. and 5% CO2 in IncuCyte ZOOM (Essen Bioscience). Images were acquired every 4 h for a period of 72 h post-treatment and software analysis was design to identify the red object in the well. The data were expressed as fold increase in spheroids size at the end of the treatment using the “average red object area in the well” as determined by the IncuCyte software analysis. FIG. 9C: Visually representative spheroids that are quantitated in FIG. 9B.
To determine the effectiveness of these compounds under 3D growth conditions which more accurately predict effectiveness of new drugs in humans, DU145 spheroids were formed and allowed to grow for 72 hours. Images were recorded every 4 hours using the Incucyte platform. […] Compounds 9 and 10, at 10 micromolar reduced spheroid growth by about 50 percent (not shown).

MST1R (RON0) = molecular target: MST1R (RON0 (Homo sapiens, UniProt Q04912)); assay: SelectScreen Kinase Profiling; type: biochemical; settings: read-out: Mean inhibition at 10 μM of HVS (%)
MST1R (RON0, sequence (Q04912 25-1400): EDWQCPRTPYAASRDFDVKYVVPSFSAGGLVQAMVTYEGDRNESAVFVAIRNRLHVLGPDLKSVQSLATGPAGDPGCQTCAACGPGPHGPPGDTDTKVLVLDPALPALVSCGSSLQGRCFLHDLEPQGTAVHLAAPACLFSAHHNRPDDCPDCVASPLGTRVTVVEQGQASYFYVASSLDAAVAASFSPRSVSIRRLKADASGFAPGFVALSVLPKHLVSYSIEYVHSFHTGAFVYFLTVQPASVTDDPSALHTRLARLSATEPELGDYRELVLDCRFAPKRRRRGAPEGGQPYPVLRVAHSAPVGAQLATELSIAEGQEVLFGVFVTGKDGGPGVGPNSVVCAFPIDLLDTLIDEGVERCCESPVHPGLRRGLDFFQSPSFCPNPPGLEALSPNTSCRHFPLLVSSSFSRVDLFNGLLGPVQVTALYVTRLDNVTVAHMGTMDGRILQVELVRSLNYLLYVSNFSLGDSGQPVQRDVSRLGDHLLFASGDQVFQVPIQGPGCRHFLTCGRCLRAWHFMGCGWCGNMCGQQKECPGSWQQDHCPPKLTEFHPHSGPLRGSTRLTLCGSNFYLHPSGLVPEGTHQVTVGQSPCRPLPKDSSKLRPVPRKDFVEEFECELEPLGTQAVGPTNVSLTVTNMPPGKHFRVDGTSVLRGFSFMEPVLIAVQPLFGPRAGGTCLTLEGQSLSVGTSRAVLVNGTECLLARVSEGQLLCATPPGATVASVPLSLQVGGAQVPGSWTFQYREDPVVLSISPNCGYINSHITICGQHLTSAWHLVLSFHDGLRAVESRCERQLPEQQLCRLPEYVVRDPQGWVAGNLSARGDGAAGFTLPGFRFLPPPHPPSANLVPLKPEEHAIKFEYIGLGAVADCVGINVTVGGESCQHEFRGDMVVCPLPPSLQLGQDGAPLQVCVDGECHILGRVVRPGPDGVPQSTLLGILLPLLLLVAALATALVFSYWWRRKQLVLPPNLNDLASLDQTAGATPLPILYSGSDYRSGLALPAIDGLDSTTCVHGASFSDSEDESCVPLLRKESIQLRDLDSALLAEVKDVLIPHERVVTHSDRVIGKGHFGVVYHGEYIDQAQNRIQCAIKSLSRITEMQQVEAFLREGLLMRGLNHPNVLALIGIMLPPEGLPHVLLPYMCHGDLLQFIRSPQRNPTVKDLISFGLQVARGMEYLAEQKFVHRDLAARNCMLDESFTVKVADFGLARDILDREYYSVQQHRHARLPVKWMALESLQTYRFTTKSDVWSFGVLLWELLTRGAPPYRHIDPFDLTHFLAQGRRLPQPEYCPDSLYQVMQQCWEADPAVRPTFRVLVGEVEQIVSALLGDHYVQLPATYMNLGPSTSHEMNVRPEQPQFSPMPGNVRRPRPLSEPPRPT

TYRO3 (RSE), sequence (Q06418 41-890): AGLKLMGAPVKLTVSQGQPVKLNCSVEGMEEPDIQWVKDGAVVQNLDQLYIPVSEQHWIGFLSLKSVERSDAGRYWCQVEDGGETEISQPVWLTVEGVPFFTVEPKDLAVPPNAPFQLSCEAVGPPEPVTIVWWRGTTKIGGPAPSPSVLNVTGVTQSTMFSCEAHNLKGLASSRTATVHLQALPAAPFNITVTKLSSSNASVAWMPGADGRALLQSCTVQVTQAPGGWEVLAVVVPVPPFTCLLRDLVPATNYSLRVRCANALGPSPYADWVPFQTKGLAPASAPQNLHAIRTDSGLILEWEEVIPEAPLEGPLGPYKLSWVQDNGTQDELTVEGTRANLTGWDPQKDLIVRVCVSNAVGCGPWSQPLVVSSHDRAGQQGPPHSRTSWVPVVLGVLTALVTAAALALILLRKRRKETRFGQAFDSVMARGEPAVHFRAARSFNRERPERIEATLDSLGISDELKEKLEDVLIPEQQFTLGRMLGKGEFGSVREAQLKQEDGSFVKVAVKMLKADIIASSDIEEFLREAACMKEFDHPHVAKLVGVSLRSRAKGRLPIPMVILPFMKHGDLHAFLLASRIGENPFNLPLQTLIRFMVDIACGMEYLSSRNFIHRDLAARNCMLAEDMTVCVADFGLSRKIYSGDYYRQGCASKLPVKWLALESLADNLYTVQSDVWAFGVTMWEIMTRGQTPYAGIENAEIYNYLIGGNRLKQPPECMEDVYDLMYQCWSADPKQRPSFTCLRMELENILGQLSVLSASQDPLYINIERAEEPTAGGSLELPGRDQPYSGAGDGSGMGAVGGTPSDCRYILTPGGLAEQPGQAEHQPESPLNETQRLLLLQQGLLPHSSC

## COc1cc(CCOC(=O)/C=C/c2cc(OC)c(O)c(OC)c2)ccc1O [Compound 8, (E)-4-hydroxy-3-methoxyph-ethyl 3-(4-hydroxy-3,5-dimethoxyphenyl) acrylate]
TYRO3 (RSE)
  inhibition at 10 µM: 21%
[1]; 33 ng/mL HGF
  HGF-induced cell scattering: significantly reduced; also recorded: appeared to block
[1]; 100 ng/mL EGF, similar treatment doses
  EGF-induced cell scattering: do not block; also recorded: not inhibited
[2]
  effect on growth in the absence of HGF: no discernable effects
DU145 spheroids; 10 micromolar
  reduction of spheroid growth: over 80%
DU145 spheroids
  lowest concentration blocking spheroid growth: ≤ 1 µM
MST1R (RON0)
  inhibition at 10 µM: 15%
